The numbers were not newly measured in US20220112625A1, “Diagnosing and Treating Neurological and Autoimmune Diseases by Optimizing Metabolic Responses” (priority 2017, published 2022), which cites them from elsewhere.

One data set addresses PI3Kα (Homo sapiens, UniProt P42336). Particulars: PI3Kγ versus PI3Kα.
A further data set addresses PI3Kδ (Homo sapiens, UniProt O00329). The settings on record: PI3Kγ versus PI3Kδ.
For another data set, the target named is PI3Kβ (Homo sapiens, UniProt P42338). The settings on record: PI3Kγ versus PI3Kβ.
Data set [1] deals with class I and class II PI3Ks.
In another data set the target is mTOR (Homo sapiens, UniProt P42345). The settings on record: up to at least about 10 μM.

PI3Kδ, sequence (O00329 whole entry, species assumed): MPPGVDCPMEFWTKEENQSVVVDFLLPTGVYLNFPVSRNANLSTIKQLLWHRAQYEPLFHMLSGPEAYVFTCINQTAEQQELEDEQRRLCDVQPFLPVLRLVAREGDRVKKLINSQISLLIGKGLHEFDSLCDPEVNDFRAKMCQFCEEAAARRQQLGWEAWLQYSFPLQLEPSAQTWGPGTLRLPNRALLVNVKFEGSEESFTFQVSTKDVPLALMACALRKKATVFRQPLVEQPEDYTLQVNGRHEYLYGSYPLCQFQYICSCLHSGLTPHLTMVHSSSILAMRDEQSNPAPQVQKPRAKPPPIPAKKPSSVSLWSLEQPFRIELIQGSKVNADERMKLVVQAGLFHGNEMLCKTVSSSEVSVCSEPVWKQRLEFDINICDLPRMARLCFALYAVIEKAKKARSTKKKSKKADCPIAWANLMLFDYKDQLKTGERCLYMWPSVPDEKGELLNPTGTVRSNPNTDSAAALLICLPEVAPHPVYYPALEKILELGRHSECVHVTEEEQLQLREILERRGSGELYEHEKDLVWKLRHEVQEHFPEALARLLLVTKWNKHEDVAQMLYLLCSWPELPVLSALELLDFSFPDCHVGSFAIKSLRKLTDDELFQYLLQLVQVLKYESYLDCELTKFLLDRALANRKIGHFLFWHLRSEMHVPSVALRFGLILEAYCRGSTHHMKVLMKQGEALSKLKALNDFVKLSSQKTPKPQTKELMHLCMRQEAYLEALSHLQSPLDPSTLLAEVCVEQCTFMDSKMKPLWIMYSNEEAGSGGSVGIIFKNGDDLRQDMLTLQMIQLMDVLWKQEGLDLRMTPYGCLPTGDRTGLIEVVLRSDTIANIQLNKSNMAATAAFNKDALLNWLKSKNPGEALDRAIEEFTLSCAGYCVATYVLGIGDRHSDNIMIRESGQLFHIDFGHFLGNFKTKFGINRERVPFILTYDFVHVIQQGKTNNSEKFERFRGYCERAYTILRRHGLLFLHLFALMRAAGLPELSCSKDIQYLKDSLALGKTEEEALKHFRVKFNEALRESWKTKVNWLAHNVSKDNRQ
PI3Kδ, sequence (P27986 whole entry partner, species assumed): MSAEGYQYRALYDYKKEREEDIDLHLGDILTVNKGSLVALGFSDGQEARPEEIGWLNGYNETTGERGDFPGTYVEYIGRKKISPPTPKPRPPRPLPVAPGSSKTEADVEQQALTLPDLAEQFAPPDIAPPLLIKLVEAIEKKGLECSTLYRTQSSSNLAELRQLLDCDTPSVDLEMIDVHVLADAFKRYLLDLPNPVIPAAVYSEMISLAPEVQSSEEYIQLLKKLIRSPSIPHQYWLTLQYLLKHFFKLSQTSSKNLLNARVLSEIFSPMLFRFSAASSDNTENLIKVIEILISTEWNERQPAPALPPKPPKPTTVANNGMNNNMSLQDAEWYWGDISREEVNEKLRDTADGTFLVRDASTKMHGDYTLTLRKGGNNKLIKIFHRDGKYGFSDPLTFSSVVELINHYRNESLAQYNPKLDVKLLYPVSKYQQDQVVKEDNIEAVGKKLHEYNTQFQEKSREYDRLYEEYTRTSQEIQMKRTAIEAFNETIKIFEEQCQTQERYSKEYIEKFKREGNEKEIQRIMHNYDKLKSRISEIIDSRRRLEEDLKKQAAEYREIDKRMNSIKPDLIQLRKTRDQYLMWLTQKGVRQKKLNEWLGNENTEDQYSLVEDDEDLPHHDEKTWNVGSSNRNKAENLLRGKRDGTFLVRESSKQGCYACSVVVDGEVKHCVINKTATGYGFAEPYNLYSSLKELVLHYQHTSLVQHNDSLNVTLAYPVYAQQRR
PI3Kα, sequence (P42336 whole entry, species assumed): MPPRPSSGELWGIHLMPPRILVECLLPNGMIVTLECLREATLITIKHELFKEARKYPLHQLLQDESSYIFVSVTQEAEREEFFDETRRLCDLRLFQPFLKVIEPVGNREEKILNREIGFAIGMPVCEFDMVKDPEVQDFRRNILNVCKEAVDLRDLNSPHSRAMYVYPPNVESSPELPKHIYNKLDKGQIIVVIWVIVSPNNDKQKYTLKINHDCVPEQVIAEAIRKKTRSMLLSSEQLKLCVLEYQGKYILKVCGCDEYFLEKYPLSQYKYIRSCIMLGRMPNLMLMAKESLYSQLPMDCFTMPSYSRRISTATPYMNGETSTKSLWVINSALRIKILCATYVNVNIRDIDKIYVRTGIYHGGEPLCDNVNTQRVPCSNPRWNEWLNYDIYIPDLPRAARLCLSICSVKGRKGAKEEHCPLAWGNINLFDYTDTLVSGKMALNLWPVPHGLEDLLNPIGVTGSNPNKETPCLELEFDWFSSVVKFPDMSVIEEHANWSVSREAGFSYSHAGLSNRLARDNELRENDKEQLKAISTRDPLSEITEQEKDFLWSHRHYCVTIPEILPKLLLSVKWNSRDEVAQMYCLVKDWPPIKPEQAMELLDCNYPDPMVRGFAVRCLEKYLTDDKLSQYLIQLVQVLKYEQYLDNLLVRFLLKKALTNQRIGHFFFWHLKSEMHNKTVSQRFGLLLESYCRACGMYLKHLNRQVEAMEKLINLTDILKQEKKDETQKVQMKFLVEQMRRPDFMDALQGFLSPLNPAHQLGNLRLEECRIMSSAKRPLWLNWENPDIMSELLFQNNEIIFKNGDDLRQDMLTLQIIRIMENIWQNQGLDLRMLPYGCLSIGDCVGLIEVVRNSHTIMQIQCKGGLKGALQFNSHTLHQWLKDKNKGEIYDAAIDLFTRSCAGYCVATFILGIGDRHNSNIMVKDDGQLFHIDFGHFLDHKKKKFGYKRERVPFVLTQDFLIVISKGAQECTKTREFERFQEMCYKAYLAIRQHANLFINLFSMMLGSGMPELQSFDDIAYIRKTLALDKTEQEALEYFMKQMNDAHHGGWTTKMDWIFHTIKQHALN
PI3Kα, sequence (P27986 whole entry partner, species assumed): as the sequence (P27986 whole entry partner, species assumed) above
PI3Kβ, sequence (P42338 whole entry, species assumed): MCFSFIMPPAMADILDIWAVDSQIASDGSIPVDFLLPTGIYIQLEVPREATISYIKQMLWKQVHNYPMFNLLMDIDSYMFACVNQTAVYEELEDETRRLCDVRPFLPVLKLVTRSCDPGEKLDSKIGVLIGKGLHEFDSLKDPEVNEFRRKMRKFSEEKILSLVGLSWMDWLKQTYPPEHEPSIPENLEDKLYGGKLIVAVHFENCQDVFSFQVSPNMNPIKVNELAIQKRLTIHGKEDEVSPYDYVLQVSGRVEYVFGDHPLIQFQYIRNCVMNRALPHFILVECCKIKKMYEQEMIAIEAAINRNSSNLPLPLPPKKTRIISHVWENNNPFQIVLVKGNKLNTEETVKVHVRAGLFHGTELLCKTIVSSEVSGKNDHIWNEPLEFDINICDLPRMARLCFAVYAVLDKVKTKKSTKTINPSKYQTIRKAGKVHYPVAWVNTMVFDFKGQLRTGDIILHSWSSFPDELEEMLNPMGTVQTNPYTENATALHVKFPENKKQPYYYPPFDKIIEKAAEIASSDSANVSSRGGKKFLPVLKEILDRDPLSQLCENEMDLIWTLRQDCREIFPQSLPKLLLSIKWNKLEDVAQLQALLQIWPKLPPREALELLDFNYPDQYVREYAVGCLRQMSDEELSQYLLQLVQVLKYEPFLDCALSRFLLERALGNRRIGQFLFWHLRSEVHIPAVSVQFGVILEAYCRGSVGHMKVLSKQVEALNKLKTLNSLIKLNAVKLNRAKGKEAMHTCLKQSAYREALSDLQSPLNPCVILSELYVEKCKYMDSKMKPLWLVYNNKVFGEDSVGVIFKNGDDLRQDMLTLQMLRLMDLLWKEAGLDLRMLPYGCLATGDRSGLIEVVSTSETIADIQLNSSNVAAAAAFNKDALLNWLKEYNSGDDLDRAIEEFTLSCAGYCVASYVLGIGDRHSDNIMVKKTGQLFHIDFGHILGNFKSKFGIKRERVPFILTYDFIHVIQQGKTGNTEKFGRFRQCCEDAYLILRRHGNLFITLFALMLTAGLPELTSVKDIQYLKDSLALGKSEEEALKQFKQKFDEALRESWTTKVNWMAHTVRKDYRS
PI3Kβ, sequence (P27986 whole entry partner, species assumed): as the sequence (P27986 whole entry partner, species assumed) above

On to `CC(C)(C)NS(=O)(=O)c1cncc(-c2cc(F)c3nc(N)nn3c2)c1` [CZC24832, 5-(2-amino-8-fluoro [1,2,4]triazolo[1,5-a]pyridin-6-yl)-N-(1,1-dimethylethyl)-3-pyridinesulfonamide], for which, on PI3Kα, the “selectivity over PI3Kα” value was greater than 100 fold. Also, on PI3Kδ, the “selectivity over PI3Kδ” value is listed as greater than 100 fold. Besides, at PI3Kβ, the “selectivity over PI3Kβ” value is recorded as 10 fold.
`C[C@@H]1COCCN1c1cc(=O)n2c(n1)N(Cc1cncc(Cl)c1)[C@H](C(F)(F)F)CC2` [SAR405, (8S)-9-[(5-chloro-3-pyridinyl)methyl]-6,7,8,9-tetrahydro-2-[(3R)-3-methyl-4-morpholinyl]-8-(trifluoromethyl)-4H-pyrimido[1,2-a]pyrimidin-4-one]: the “effect on class I and class II PI3Ks” value in data set [1] (up to at least about 10 μM) was “no effect”. On mTOR, the “effect on mTOR” value is recorded as “no effect”.
On to `CC(C)(O)CNc1ncc(-c2ccnc(Nc3ccnc(Cl)c3)n2)c(CC2CC2)n1` [VPS34-IN1, 1-[[2-[(2-chloro-4-pyridinyl)amino]-4′-(cyclopropylmethyl)[4,5′-bipyrimidin]-2′-yl]amino]-2-methyl-2-Propanol], for which the “inhibition of the isoforms of class I as well as class II PI3Ks” value in data set [1] was “does not significantly inhibit”.
